The record followed here is ChEMBL document CHEMBL4673296 (J Med Chem, 2020).

Each structure is given as a SMILES string. The source made the active and inactive calls. The rule behind the calls is not given here. Where only a bound is given, the exact number is not on record here.

In series [1] the test system is MDA-MB-468. The experiment in a line: Induction of apoptosis in human MDA-MB-468 cells assessed as early apoptotic cells at 10 uM measured after 18 hrs in low-glucose, amino acid-free Earles balanced salt solution (EBSS) media by AnnexinV/7-AAD staining based flow cytometric analysis (reference value: 5.6%). Format: functional. For orientation: A flow cytometer gives signals particle by particle.

For series [2], the target named is T1, Serine/threonine-protein kinase ULK1 (Homo sapiens, UniProt O75385).
T1 sequence (O75385 whole entry): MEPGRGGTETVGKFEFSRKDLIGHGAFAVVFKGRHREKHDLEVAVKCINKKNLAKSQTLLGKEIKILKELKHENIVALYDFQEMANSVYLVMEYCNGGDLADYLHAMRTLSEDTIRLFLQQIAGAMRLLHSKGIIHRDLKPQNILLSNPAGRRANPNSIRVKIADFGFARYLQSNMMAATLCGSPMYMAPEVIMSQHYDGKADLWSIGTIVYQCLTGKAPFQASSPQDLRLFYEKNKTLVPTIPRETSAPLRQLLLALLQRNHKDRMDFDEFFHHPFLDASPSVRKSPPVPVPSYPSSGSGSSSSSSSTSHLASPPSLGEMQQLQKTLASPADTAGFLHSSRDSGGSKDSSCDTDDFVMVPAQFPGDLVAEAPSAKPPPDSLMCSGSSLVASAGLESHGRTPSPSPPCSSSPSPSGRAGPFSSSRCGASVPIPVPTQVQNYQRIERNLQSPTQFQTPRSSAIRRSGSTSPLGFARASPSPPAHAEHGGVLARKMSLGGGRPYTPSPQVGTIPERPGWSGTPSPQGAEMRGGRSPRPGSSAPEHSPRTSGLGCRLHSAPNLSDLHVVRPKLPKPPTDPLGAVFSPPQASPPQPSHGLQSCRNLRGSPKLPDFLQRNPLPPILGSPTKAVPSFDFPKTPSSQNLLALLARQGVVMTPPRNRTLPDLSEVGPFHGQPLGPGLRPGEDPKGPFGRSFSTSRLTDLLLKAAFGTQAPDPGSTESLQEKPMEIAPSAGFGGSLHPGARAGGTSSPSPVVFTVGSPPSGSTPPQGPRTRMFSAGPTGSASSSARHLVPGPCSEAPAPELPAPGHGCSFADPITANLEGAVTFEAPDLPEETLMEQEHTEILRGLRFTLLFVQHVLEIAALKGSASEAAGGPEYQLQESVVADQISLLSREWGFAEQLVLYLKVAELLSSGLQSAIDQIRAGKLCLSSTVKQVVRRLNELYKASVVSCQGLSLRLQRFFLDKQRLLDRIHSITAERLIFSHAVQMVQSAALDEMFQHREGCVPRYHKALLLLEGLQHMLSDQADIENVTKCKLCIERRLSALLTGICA
The experiment in a line: Inhibition of ULK1 (unknown origin) expressed in HEK293T cells incubated for 2 hrs by NanoBRET assay. Format: cell-based.

Series [3] relates to Mus musculus. The experiment in a line: Decrease in total ATG13 level in liver lysate of C57BL/6J mouse at 10 mg/kg, po measured after 2 hrs by Western blot analysis. Type of series: functional, organism-based.
The target of series [4] is T2, Serine/threonine-protein kinase ULK1 (Homo sapiens) (UniProt O75385).
T2 sequence (whole entry): T1 sequence (O75385 whole entry)
Put plainly: Inhibition of Myc-tagged ULK1 (unknown origin) expressed in HEK293T cells cotransfected with wild-type Flag tagged Vps34 assessed as decrease in pVPS34 Ser249 at 10 uM measured after 1 hr by Western blot analysis relative to control. Format: cell-based.

The subject of series [5] is MDA-MB-468. Put plainly: Reduction in autophagosome accumulation in human MDA-MB-468 cells at 10 uM by transmission electron microscopic analysis. Format: functional, cell-based.
Series [6] relates to MDA-MB-468. Put plainly: Induction of apoptosis in human MDA-MB-468 cells assessed as viable cells at 10 uM measured after 18 hrs in normal growth media by AnnexinV/7-AAD staining based flow cytometric analysis (reference value: 87.4%). Type of series: functional. To be noted: read-out: Activity.
Series [7] has as its system MDA-MB-468. Put plainly: Induction of apoptosis in human MDA-MB-468 cells assessed as early apoptotic cells at 10 uM measured after 18 hrs in normal growth media by AnnexinV/7-AAD staining based flow cytometric analysis (reference value: 5.6%). Type of series: functional.
For series [8], the system named is MDA-MB-468. Put plainly: Induction of apoptosis in human MDA-MB-468 cells assessed as necrotic cells at 10 uM measured after 18 hrs in low-glucose, amino acid-free Earles balanced salt solution (EBSS) media by AnnexinV/7-AAD staining based flow cytometric analysis (reference value: 0.1%). Format: functional.
Series [9] deals with T1, Serine/threonine-protein kinase ULK1. Put plainly: Inhibition of recombinant human ULK1 (1-649) expressed in Sf9 cells using myelin basic protein as substrate by ADP-glo assay. Particulars: sf9.
A short description of series [10]: Efflux ratio of apparent permeability from basolateral side to apical side over apical side to basolateral side in human Caco2 cells. Format: ADME, cell-based. Particulars: Caco-2. Background: Caco-2 monolayers are a common model of the intestinal barrier.
Series [11] can be described thus: Half life in C57BL/6J mouse at 30 mg/kg, po measured upto 24 hrs by LC-MS/MS analysis. Format: ADME, organism-based. Particulars: in vivo.
The target of series [12] is T3, Serine/threonine-protein kinase ULK2 (Homo sapiens, UniProt Q8IYT8).
T3 sequence (Q8IYT8 whole entry): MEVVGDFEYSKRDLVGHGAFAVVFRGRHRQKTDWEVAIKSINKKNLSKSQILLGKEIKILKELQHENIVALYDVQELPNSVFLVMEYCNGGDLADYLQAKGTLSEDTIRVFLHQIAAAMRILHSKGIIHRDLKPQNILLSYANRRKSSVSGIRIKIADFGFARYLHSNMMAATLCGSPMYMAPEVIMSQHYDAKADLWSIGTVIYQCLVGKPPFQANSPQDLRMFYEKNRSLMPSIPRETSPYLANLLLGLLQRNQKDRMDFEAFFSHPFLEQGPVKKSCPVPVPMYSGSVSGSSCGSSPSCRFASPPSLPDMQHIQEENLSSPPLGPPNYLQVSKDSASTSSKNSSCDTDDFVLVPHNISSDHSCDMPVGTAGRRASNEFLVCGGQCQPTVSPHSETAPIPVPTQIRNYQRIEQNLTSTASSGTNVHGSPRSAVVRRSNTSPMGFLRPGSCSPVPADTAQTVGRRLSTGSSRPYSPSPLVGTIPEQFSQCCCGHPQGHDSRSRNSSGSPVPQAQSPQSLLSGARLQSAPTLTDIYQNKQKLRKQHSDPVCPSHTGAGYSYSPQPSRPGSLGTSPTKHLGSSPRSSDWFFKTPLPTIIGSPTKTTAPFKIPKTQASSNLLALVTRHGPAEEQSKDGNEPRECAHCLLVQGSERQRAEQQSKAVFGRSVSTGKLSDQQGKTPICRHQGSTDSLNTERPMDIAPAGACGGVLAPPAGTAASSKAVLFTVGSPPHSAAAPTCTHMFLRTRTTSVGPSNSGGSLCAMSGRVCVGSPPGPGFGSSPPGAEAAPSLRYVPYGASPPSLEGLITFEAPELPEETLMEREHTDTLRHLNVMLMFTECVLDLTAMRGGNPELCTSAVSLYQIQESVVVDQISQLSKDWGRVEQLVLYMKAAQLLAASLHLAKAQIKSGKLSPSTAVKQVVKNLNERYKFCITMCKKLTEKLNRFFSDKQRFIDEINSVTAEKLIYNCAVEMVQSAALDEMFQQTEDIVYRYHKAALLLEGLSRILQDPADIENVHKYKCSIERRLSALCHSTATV
Put plainly: Inhibition of recombinant human ULK2 (1 to 478 residues) expressed in Sf9 cells using myelin basic protein as substrate by ADP-glo assay.

The IC50 is the point on the concentration scale where inhibition reaches its midpoint. The term inhibition denotes the relative decrease from the control value, in per cent. A word on the efflux ratio: it is a quotient of directional permeabilities that is used to spot active efflux. In general, half-life refers to how long it takes for the measured level to halve. A lower half-life goes with fast loss. In the case of `COc1ccc(Nc2ncc(C(F)(F)F)c(NC3CC3)n2)cc1OC`, the Activity is given as 42.9% in series [1], 28.9% in series [7] and 0.1% in series [8]. The IC50 was found to be 0.328 µM in [2], 0.013 µM in [9] and 0.476 µM in series [12]. Moreover, the inhibition entry in series [3] and in series [5] was “Active” in each case. Also, the inhibition in series [4] worked out at 90%. The viability at 10 µM in series [6] worked out at 64.1%. Also, the efflux ratio in series [10] is below 2. This compound also had a half-life in series [11] of 1.7 h.
